What is called IC50 is the concentration that gives 50% inhibition. A higher IC50 goes with weaker potency. What is called Ki is the dissociation constant of the complex between target and ligand, obtained from inhibition or displacement. Higher therefore signals weaker binding.

The results in this text go back to patent US10450278B2, “Substituted 2-thioxo-imidazolidin-4-ones and spiro analogues thereof, active anticancer ingredient, pharmaceutical composition, medicinal preparation, method for treating prostate cancer” (R-Pharm Overseas Inc., priority 2014, dated 2019).

The target in this experiment is T1, androgen receptors (Homo sapiens, UniProt P10275, T878A).
T1 sequence (P10275 1-920 T878A): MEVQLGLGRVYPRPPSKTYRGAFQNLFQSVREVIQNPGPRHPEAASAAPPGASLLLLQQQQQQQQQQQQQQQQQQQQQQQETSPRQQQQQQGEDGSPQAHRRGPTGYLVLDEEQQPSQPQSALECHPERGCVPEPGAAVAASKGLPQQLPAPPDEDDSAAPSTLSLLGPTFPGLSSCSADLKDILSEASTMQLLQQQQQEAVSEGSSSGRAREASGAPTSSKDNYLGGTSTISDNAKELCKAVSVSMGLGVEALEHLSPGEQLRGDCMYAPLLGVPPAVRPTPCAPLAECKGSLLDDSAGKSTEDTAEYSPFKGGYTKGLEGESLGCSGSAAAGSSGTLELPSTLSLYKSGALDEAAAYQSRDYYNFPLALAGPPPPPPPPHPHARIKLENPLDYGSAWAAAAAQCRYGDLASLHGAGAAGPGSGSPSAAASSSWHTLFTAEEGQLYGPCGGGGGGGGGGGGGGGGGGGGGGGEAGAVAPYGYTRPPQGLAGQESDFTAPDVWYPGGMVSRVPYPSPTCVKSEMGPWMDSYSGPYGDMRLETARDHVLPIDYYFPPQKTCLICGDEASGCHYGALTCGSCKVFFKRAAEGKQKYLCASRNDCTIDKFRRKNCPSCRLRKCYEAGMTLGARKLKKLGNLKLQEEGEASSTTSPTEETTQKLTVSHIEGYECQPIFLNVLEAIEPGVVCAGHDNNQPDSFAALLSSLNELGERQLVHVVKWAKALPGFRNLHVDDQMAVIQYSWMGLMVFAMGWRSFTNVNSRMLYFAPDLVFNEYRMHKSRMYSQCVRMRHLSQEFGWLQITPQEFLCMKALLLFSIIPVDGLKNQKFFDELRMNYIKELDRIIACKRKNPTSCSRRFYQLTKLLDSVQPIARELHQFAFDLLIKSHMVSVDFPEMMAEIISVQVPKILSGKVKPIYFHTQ
Briefly: cell-based. On the procedure:
Determination of antagonistic activity of the new compounds of general formula 1 and their analogues with respect to androgen receptors. The ability of the new compounds of general formula 1 and their analogues block androgen receptors is determined by their effectiveness ingbirovaniya sitmulirovannoy dihydrotestosterone expression of prostate-specific antigen (PSA) in the human prostate cancerous cells, LNCap, bank obtained from the American Tissue Culture (ATCC, USA). These cells are sensitive to 5-α-dihydrotestosterone (DHT) and produce cancerous marker (PSA) in its presence. […] Before experiments, the cells were washed and suspended in the same medium, where, however, calf serum was replaced with serum-treated to remove traces of charcoal hormones. Cells were dispensed at 100 1 (10 000 cells) in cell 96 lunochnoyh dies and left for 4 days in an incubator at […] (100% humidity) in an atmosphere of 95% air/5% CO2. […] Cells were allowed to stand for further 5 days under the same incubation conditions. Then nadkletochnoy environmental samples were taken for analysis on the content of the PSA. The analysis was performed according to the protocol recommended by the kit manufacturer to determine the PSA (Alpha Diagnostic International, USA). After wetting holes on the bottom affixed containing antibodies against PSA, they added 25 ul of samples and then 100 µL of antibodies as anti-PSA, which konyugtrovana horseradish peroxidase. After a 30 minute incubation at room temperature, the wells were removed, the wells were washed several times and poured into the wells, 100 ul of a chromogenic peroxidase substrate. Plates were incubated for 15 minutes at room temperature, the wells were added 50 mcl of stop solution and the intensity of color which developed was measured by absorbance at 450 nm. The intensity of the absorption is proportional to the concentration of PSA in the sample. […] 1.

Consider `CNC(=O)c1ccc(N2C(=S)N(c3ccc(C#N)c(C(F)(F)F)c3)C(=O)[C@@]2(C)COC)cc1F` [II], for which the IC50 amounted to 145 nM and the Ki was found to be 34.9 nM.

Molecule `CNC(=O)c1ccc(N2C(=S)N(c3ccc(C#N)c(C(F)(F)F)c3)C(=O)[C@]23CCOC3)cc1F` [IV] gave a half-maximal inhibitory concentration (IC50) of 83.5 nM and a Ki of 20.1 nM.
